In patent US20240285780A1 (priority 2020, published 2024):
Several values for one entry are separate records, joined by “and”; a condition that tells them apart may be missing. Identical values can stand only once. Where a SMILES comes first, the peptide text is derived from it. [ ]: non-standard residue; d: D form. The star is where a group is joined. Trolox = Cc1c(C)c2c(c(C)c1O)CCC(C)(C(=O)*)O2; Cha = N[CH](CC1CCCCC1)C(=O)O

Experiments:
Fibronectin = format: cell-based, mouse
Sprague-Dawley rats = conditions: rat, in vivo
[1] = test system: collagen type I alpha 1 (Col1a1); format: cell-based, mouse
[2] = test system: neuroblastoma-derived cell line (SH-SY5Y); format: cell-based
Elastin = format: cell-based, mouse

## CCC(C)C(NC(=O)C(CC(C)C)NC(=O)C(CC1CCCCC1)NC(=O)C(CCCCN)NC(=O)C1(C)CCc2c(C)c(O)c(C)c(C)c2O1)C(=O)NC(CCCCN)C(=O)O (stereo not drawn) [trolox-peptide conjugate] (Trolox-K[Cha]LIK-OH; configuration not given here)
Fibronectin
  expression level of fibronectin: significantly increased
Sprague-Dawley rats
  DAS Score: 4 and 2 and 3
  duration of the muscle relaxation effect: lasted longer
[1]
  expression level of collagen (Col1a1): significantly increased
[2]
  release of acetylcholine: significantly inhibited
Elastin
  expression level of elastin: significantly increased
